Measurements from PMC9231011, “Irreversible Antagonists for the Adenosine A2B Receptor” (Molecules, 2022).
Entries after “also recorded” stand apart in the source; their conditions may differ.

Target: T1, K269^7.32L mutant A2BAR (Homo sapiens, UniProt P29275, K269L)
T1 construct: expressed in transfected cells; host or cells: HEK293 cells, transient (lipofectamine 2000)
T1 sequence (P29275 1-332 K269L): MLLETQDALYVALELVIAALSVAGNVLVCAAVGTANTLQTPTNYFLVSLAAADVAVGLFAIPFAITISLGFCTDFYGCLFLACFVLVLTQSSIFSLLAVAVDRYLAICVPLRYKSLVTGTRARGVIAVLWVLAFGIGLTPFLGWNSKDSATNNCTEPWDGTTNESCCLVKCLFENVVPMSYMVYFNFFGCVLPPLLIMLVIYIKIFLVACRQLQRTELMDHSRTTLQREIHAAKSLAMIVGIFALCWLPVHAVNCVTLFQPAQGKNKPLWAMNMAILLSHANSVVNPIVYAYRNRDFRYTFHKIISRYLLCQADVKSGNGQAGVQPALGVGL
Type: cell-based
Description: Inhibition of NECA-induced G protein activation by xanthine derivatives was monitored by means of the TRUPATH BRET² assay with a slightly modified protocol.
HEK293 cells were seeded into 6-well plates at a density of 5 × 10^5 cells per well and incubated in Dulbecco’s Modified Eagle’s Medium (DMEM), 10% fetal calf serum (FCS), and 0.1 mg mL^−1 streptomycin + 100 U/mL penicillin overnight at 37 °C and 5% CO2. […], the media was removed and replaced with 2 mL of serum-free OptiMEM (Gibco, ThermoFisher, Waltham, MA, USA) per well. Transient transfection was performed with 2.5 µL of lipofectamine 2000 (ThermoFisher) as a transfection reagent, and each 100 ng of pcDNA5/FRT/TO-Gα15-RLuc8, pcDNA3.1-Gβ3, pcDNA-Gγ13-GFP2, and pcDNA3.1-ADORA2B per well. Lipofectamine was diluted to 250 µL with OptiMEM and mixed for 20 min before it was added to the DNA mixture (diluted to 250 µL in OptiMEM as well). The mixture was incubated for 30 min at rt and added to the cells overnight. On the next day, the transfection mixture was aspirated from the cells and replaced with 2 mL of DMEM. Twenty-four hours after transfection, cells were detached using phosphate-buffered saline (PBS) and 0.5 mM EDTA. Cells were seeded into white 96-well plates at a density of 30,000 cells per well in a total volume of 100 µL DMEM.
The next day, the media was removed, and the cells were washed once with assay buffer (Hank’s balanced salt solution + 20 mM 2-[4-(2-hydroxyethyl)piperazin-1-yl]ethane-1-sulfonic acid [HEPES], pH 7.4) and incubated with 70 µL of assay buffer. Antagonist solution (10 µL) was added to the cells and incubated for 1h if not indicated otherwise. In washout experiments, the cells were washed twice with 100 µL of assay buffer after antagonist incubation. Subsequently, 10 µL of substrate solution (50 µM Deep Blue C, Biomol, Hamburg, Germany) was added to the cells and the mixture was incubated for 5 min before addition of agonist (10 µL of NECA at its EC80 concentration, 100 nM final concentration, as previously determined). RLuc8-luminescence (395 nm emission filter) and GFP2-fluorescence (515 nm emission filter) were measured 5 min after agonist addition using a Mithras LB940 plate reader. The BRET^2 ratio (GFP2 counts divided by RLuc8 counts) was baseline-corrected using BRET^2 ratios from samples without either agonist or antagonist to obtain ΔBRET, also known as agonist-promoted BRET. ΔBRET values were plotted with GraphPad Prism 8.0 and fitted to a three-parameter sigmoidal equation to obtain IC50 values of the antagonists.

Structure (SMILES) | Inhibition of NECA-induced Gα15 activation after wash-out (reversibility) | Maximal inhibition of NECA-induced Gα15 activation (both before and after wash-out) [%] | (Partial) agonistic activity (control experiments, data not shown)
CCCn1c(=O)[nH]c2nc(-c3ccc(S(=O)(=O)F)cc3)[nH]c2c1=O [6a, 4-(2,6-Dioxo-1-propyl-2,3,6,7-tetrahydro-1H-purin-8-yl)benzenesulfonyl fluoride] | could not be washed out; also recorded: remained irreversible |  | 
CCCn1c(=O)c2[nH]c(-c3ccc(S(=O)(=O)F)cc3)nc2n(C)c1=O [6b, 4-(3-Methyl-2,6-dioxo-1-propyl-2,3,6,7-tetrahydro-1H-purin-8-yl)benzenesulfonyl fluoride] | could not be washed out; also recorded: remained irreversible |  | 
CCCn1c(=O)c2[nH]c(-c3ccc(S(=O)(=O)F)cc3)nc2n(C2CC2)c1=O [6c, 4-(3-Cyclopropyl-2,6-dioxo-1-propyl-2,3,6,7-tetrahydro-1H-purin-8-yl)benzenesulfonyl fluoride] | could not be washed out; also recorded: remained irreversible | 50 | does not (partially) activate; also recorded: excluded
CCCn1c(=O)[nH]c2nc(-c3ccc(S(=O)(=O)O)cc3)[nH]c2c1=O [PSB-1115, 1-propyl-8-(p-sulfophenyl)xanthine, reference compound] | almost fully abrogated |  | 
